{"source": "patent US20250313547A1", "about": "“CEREBLON LIGANDS AND BIFUNCTIONAL COMPOUNDS COMPRISING THE SAME” (Arvinas Operations, Inc., priority 2017, published 2025)"}
{"target": "T1, Estrogen receptor-alpha (ERα) (Homo sapiens (Human), UniProt P03372)", "T1 sequence (P03372 whole entry)": "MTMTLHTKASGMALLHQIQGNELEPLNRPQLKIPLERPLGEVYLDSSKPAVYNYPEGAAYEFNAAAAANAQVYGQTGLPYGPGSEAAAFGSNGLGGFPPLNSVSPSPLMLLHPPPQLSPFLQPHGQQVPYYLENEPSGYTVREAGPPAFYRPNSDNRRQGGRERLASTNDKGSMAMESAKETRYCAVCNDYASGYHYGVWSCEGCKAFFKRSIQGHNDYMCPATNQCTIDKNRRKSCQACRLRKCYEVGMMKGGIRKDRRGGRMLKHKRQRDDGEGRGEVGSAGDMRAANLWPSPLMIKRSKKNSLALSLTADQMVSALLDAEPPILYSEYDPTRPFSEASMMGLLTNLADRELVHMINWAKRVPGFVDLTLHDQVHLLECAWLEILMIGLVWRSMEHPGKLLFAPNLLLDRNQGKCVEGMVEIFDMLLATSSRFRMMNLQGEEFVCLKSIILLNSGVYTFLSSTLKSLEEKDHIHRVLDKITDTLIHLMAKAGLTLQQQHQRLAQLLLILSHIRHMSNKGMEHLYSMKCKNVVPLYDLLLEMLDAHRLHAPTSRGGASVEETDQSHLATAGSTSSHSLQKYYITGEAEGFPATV", "experiment": "ERα degradation assay in T47D cells", "format": "cell-based", "details": "5 day incubation, read-out: ER degradation DC50", "units": {"DC50": "µM"}}
{"compound": "CCN(C(=O)c1ccc(N2CCN(CCCCCOc3ccc([C@@H]4c5ccc(O)cc5CC[C@@H]4c4ccccc4)cc3)CC2)cc1OC)C1CCC(=O)NC1=O", "note": "(mixture of isomers) [PROTAC-92, rac-N-(2,6-dioxopiperidin-3-yl)-N-ethyl-4-(4-(5-(4-((1R,2S)-6-hydroxy-2-phenyl-1,2,3,4-tetrahydronaphthalen-1-yl)phenoxy)pentyl)piperazin-1-yl)-2-methoxybenzamide]", "DC50": "≥ 0.1"}
{"compound": "O=C1CCC(N2CC(Oc3cccc(C4CCN(CCCCOc5ccc([C@@H]6c7ccc(O)cc7CC[C@@H]6c6ccccc6)cc5)CC4)c3)=CC2=O)C(=O)N1", "note": "(mixture of isomers) [PROTAC-104, rac-3-(4-(3-(1-(4-(4-((1R,2S)-6-hydroxy-2-phenyl-1,2,3,4-tetrahydronaphthalen-1-yl)phenoxy)butyl)piperidin-4-yl)phenoxy)-2-oxo-2,5-dihydro-1H-pyrrol-1-yl)piperidine-2,6-dione]", "DC50": "≥ 0.1"}
{"compound": "O=C1CCC(N2CC(Oc3cccc(C4CCN(CCCOc5ccc([C@H]6c7ccc(O)cc7CC[C@H]6c6ccccc6)cc5)CC4)c3)=CC2=O)C(=O)N1", "note": "(mixture of isomers) [PROTAC-105, rac-3-(4-(3-(1-(3-(4-((1R,2S)-6-hydroxy-2-phenyl-1,2,3,4-tetrahydronaphthalen-1-yl)phenoxy)propyl)piperidin-4-yl)phenoxy)-2-oxo-2,5-dihydro-1H-pyrrol-1-yl)piperidine-2,6-dione]", "DC50": "≥ 0.1"}
{"compound": "O=C1CCC(N2CC(Oc3cccc(C4CCN(CCCCOc5ccc([C@H]6c7ccc(O)cc7CC[C@H]6c6ccccc6)cc5)CC4)c3)=CC2=O)C(=O)N1", "note": "(mixture of isomers) [PROTAC-109, rac-3-(4-(3-(1-(4-(4-((1R,2S)-6-hydroxy-2-phenyl-1,2,3,4-tetrahydronaphthalen-1-yl)phenoxy)butyl)piperidin-4-yl)phenoxy)-2-oxo-2,5-dihydro-1H-pyrrol-1-yl)piperidine-2,6-dione]", "DC50": "≥ 0.1"}
{"compound": "O=C1CCC(N2CC(Oc3cccc(C4CCN(CCCOc5ccc([C@@H]6c7ccc(O)cc7CC[C@@H]6c6ccccc6)cc5)CC4)c3)=CC2=O)C(=O)N1", "note": "(stereo partly drawn) [PROTAC-106, 3-(4-(3-(1-(3-(4-((1R,2S)-6-hydroxy-2-phenyl-1,2,3,4-tetrahydronaphthalen-1-yl)phenoxy)propyl)piperidin-4-yl)phenoxy)-2-oxo-2,5-dihydro-1H-pyrrol-1-yl)piperidine-2,6-dione]", "DC50": "0.001 to 0.01"}
{"test_system": "tau protein", "experiment": "Tau protein in vitro degradation assay in SK-N-SH cells (Western blot)", "format": "cell-based, human", "details": "% degraded, 72-hour incubation", "experimental": "10. Tau Protein In Vitro Degradation Assay\nTo determine effect of PROTACs on tau protein degradation SK-N-SH cells were seeded in a 24-well tissue culture-treated plate for at least 18-hours prior to compound addition. Tau PROTACs were evaluated for tau degradation by lysing the cells in RIPA buffer with protease inhibitors following a 72-hour incubation with tau PROTACs. Cell lysates were run on standard SDS-PAGE gels, and tau levels were detected by Western blotting using Tau-13 antibody from Abcam (Cambridge, UK) that binds to all forms of human tau."}
{"compound": "Cn1c2ccncc2c2ccc(-c3ccc(OCCOCCOCCOCCOCCN4CCC5(CC4)CC(=O)N(C4CCC(=O)NC4=O)C5=O)nc3)cc21", "note": "(stereo not shown) [PROTAC-112, 2-(2,6-dioxopiperidin-3-yl)-8-(14-((5-(5-methyl-5H-pyrido[4,3-b]indol-7-yl)pyridin-2-yl)oxy)-3,6,9,12-tetraoxatetradecyl)-2,8-diazaspiro[4.5]decane-1,3-dione]", "Tau degradation % DMax": "C (C <= 50)"}
{"target": "T1, Estrogen receptor-alpha (ERα)", "experiment": "ERα degradation assay using In-Cell Western in MCF7 cells", "format": "cell-based", "details": "3 day incubation, read-out: ER degradation DC50", "experimental": "(§1) 3. Estrogen Receptor-Alpha (ERα) Degradation Assay Using in-Cell Western™ Assay for Table 5.\n(§2) Degradation of ERα by claimed compounds were determined in MCF7 cells using an In-Cell Western™ assay. Briefly, MCF7 cells were plated in 96-well plates (2000 cells per well in 100 μl media) and incubated at 37° C. under an atmosphere of 5% CO2 in a humidified incubator overnight. One-hundred (100) μl of media containing test compound (at 2× concentration) was added to the appropriate wells to provide 11 serially decreasing concentrations (top final concentration, 1 μM then 3-fold less for the next 10 concentrations); a vehicle control (DMSO) was also added for each compound. For each experiment, all compounds were assayed in duplicate plates. Cells were then incubated for 3 or 5 days in the above-mentioned environment. The assay was terminated by removal of media, a single wash with ice-cold PBS and the addition of 50 μl paraformaldehyde (PFA: 4% in PBS). After 15 minutes in PFA at room temperature, the cells were permeabilized in Tris-phosphate-buffered saline with Tween (0.1%) (TBST) supplemented with Triton X-100 (0.5%) for 15 minutes. Cells were then blocked in BSA (TBST with BSA, 3%) for one hour. […] The cells were incubated overnight at 4° C. The cells were then washed thrice with TBST at room temperature and then incubated with anti-rabbit and anti-mouse fluorescently-labelled secondary antibodies (IRDye®; LI-COR; Lincoln, NE) in LI-COR blocking buffer (Catalog #927-50000) for one hour at room temperature. Following 3 washes with TBST, the buffer was removed and the plates were read on an Odyssey® infrared imaging system (LI-COR®; Lincoln, NE) at 700 nm and 800 nm. Using commercial software (ImageStudio™; LI-COR, Lincoln, NE), the staining intensity for ERα and tubulin in each well was quantified and exported for analysis. For each data point, ERα intensity was normalized to tubulin intensity and for each compound all normalized intensity values were normalized to the vehicle control. DC50 and Dmax values were determined following a 4-parameter IC50 curve fit using ACAS dose response module (McNeil & Co Inc.).", "units": {"DC50": "µM"}}
{"compound": "Cc1nc2c(NCCN3CCN(CCOc4ccc(Oc5c(-c6ccc(Br)cc6)sc6cc(O)ccc56)cc4)CC3)cccc2c(=O)n1C1CCC(=O)NC1=O", "note": "(stereo not shown) [PROTAC-107, 3-(8-((2-(4-(2-(4-((2-(4-bromophenyl)-6-hydroxybenzo[b]thiophen-3-yl)oxy)phenoxy)ethyl)piperazin-1-yl)ethyl)amino)-2-methyl-4-oxoquinazolin-3(4H)-yl)piperidine-2,6-dione]", "DC50": "≥ 0.1"}
{"compound": "Cc1nc2c(OCCN3CCN(CCOc4ccc(Oc5c(-c6ccc(Br)cc6)sc6cc(O)ccc56)cc4)CC3)cccc2c(=O)n1C1CCC(=O)NC1=O", "note": "(stereo not shown) [PROTAC-108, 3-(8-(2-(4-(2-(4-((2-(4-bromophenyl)-6-hydroxybenzo[b]thiophen-3-yl)oxy)phenoxy)ethyl)piperazin-1-yl)ethoxy)-2-methyl-4-oxoquinazolin-3(4H)-yl)piperidine-2,6-dione]", "DC50": "≥ 0.1"}
{"target": "T1, Estrogen receptor-alpha (ERα)", "experiment": "ERα degradation assay using In-Cell Western in MCF7 cells", "format": "cell-based", "details": "5 day incubation, read-out: ER degradation DC50", "experimental": "as §1, §2", "units": {"DC50": "µM"}}
{"compound": "CN(C(=O)c1ccc(N2CCN(CCCCCOc3ccc([C@@H]4c5ccc(O)cc5CC[C@@H]4c4ccccc4)cc3)CC2)cc1)C1CCC(=O)NC1=O", "note": "(mixture of isomers) [PROTAC-90, rac-N-(2,6-dioxopiperidin-3-yl)-4-(4-(5-(4-((1R,2S)-6-hydroxy-2-phenyl-1,2,3,4-tetrahydronaphthalen-1-yl)phenoxy)pentyl)piperazin-1-yl)-N-methylbenzamide]", "DC50": "0.001 to 0.01"}
{"compound": "O=C1CCC(NC(=O)c2ccc(N3CCN(CCCCCOc4ccc([C@@H]5c6ccc(O)cc6CC[C@@H]5c5ccccc5)cc4)CC3)cn2)C(=O)N1", "note": "(mixture of isomers) [PROTAC-91, rac-N-(2,6-dioxopiperidin-3-yl)-5-(4-(5-(4-((1R,2S)-6-hydroxy-2-phenyl-1,2,3,4-tetrahydronaphthalen-1-yl)phenoxy)pentyl)piperazin-1-yl)picolinamide]", "DC50": "0.001 to 0.01"}
{"compound": "O=C1CCC(n2ncc(N3CCN(CCCCCOc4ccc([C@@H]5c6ccc(O)cc6CC[C@@H]5c5ccccc5)cc4)CC3)cc2=O)C(=O)N1", "note": "(mixture of isomers) [PROTAC-100, rac-3-(4-(4-(5-(4-((1R,2S)-6-hydroxy-2-phenyl-1,2,3,4-tetrahydronaphthalen-1-yl)phenoxy)pentyl)piperazin-1-yl)-6-oxopyridazin-1(6H)-yl)piperidine-2,6-dione]", "DC50": "0.001 to 0.01"}
{"compound": "O=C1CCC(n2cnc(N3CCN(CCCCCOc4ccc([C@@H]5c6ccc(O)cc6CC[C@@H]5c5ccccc5)cc4)CC3)cc2=O)C(=O)N1", "note": "(mixture of isomers) [PROTAC-101, rac-3-(4-(4-(5-(4-((1R,2S)-6-hydroxy-2-phenyl-1,2,3,4-tetrahydronaphthalen-1-yl)phenoxy)pentyl)piperazin-1-yl)-6-oxopyrimidin-1(6H)-yl)piperidine-2,6-dione]", "DC50": "0.001 to 0.01"}
{"compound": "O=C1CCC(n2cc(-c3ccc(N4CCN(CCCOc5ccc([C@@H]6c7ccc(O)cc7CC[C@@H]6c6ccccc6)cc5)CC4)cc3)cn2)C(=O)N1", "note": "(mixture of isomers) [PROTAC-110, rac-3-(4-(4-(4-(3-(4-((1R,2S)-6-hydroxy-2-phenyl-1,2,3,4-tetrahydronaphthalen-1-yl)phenoxy)propyl)piperazin-1-yl)phenyl)-1H-pyrazol-1-yl)piperidine-2,6-dione]", "DC50": "< 0.001"}
{"compound": "O=C1CCC(N2CC(c3ccc(N4CCN(CC5CCN(c6ccc([C@@H]7c8ccc(O)cc8CC[C@@H]7c7ccccc7)cc6)CC5)CC4)cc3)=CC2=O)C(=O)N1", "note": "(stereo partly drawn) [PROTAC-89, 3-[3-[4-[4-[[1-[4-[(1R,2S)-6-hydroxy-2-phenyl-tetralin-1-yl]phenyl]-4-piperidyl]methyl]piperazin-1-yl]phenyl]-5-oxo-2H-pyrrol-1-yl]piperidine-2,6-dione]", "DC50": "0.001 to 0.01"}
{"compound": "O=C1CCC(n2ncc(N3CCN(CC4CCN(c5ccc([C@@H]6c7ccc(O)cc7CC[C@@H]6c6ccccc6)cc5)CC4)CC3)cc2=O)C(=O)N1", "note": "(stereo partly drawn) [PROTAC-102, 3-[4-[4-[[1-[4-[(1R,2S)-6-hydroxy-2-phenyl-tetralin-1-yl]phenyl]-4-piperidyl]methyl]piperazin-1-yl]-6-oxo-pyridazin-1-yl]piperidine-2,6-dione]", "DC50": "0.001 to 0.01"}
{"test_system": "c-myc", "experiment": "BRD4 human c-Myc ELISA assay in 22RV-1 cells", "format": "cell-based", "details": "18 hours", "experimental": "6. BRD4 Human c-Myc ELISA Assay Protocol\n22RV-1 cells were seeded at 30,000 cells/well at a volume of 75 µL/well in RPMI with 10% FBS media in 96-well plates and grown overnight at 37° C. Cells were dosed with compounds at 4× concentration diluted in 0.4% DMSO; compounds were serially diluted 1:3 for 8-point dose curve. Twenty-five (25) ul of the compounds was added to cells for a final concentration starting at 300 nM-0.3 nM or 1 uM-1 nM in 0.1% DMSO and incubated for 18 hours. Media was aspirated, cells were washed 1×with PBS and aspirated. Cells were lysed in 50 ul RIPA buffer (50 mM Tris pH8, 150 mM NaCl, 1% Tx-100, 0.1% SDS, 0.5% sodium deoxycholate) supplemented with protease and phosphatase inhibitors. Plates were incubated on ice for 15 minutes then centrifuged at 4° C. for 10 minutes at 4000 rpm. Fifty (50) ul of cleared lysate from a 96-well assay plate was added into 96-well c-myc ELISA plate (Novex, Life Technologies Catalog #KH02041). c-myc standard was reconstituted with standard diluent buffer; standard curve range of 333 pg/ml-0 pg/ml was prepared, diluted 1:2 for 8-point dose curve. The rest of the assay was performed following the protocol from the c-myc ELISA kit. Data was analyzed and plotted using GraphPad Prism software."}
{"compound": "Cc1sc2c(c1C)C(c1ccc(Cl)cc1)=NC(CC(=O)NCCCOCCCOc1ccc3ncc(-n4ccc(=O)[nH]c4=O)cc3c1)c1nnc(C)n1-2", "note": "(stereo not shown) [PROTAC-1, 2-(4-(4-chlorophenyl)-2,3,9-trimethyl-6H-thieno[3,2-f][1,2,4]triazolo[4,3-a][1,4]diazepin-6-yl)-N-(3-(3-((3-(2,4-dioxo-3,4-dihydropyrimidin-1(2H)-yl)quinolin-6-yl)oxy)propoxy)propyl)acetamide]", "IMax Myc": "40C (C <= 50)"}
